Experimental data from patent US20070043512A1, “Therapeutic and prophylactic compositions and uses therefor” (priority 2003, published 2007).
Values joined by “and” are separate entries in the source; they are usually repeats but may differ in a detail not shown here. Equal entries are not always repeated. “Also recorded” adds a separate entry of the source.

Assays:
Assay type in all cases: cell-based, human
FABP-5 gene expression [1] = test: Microarray, FABP-5 gene expression in synovial fibroblasts (RA/OA synoviocytes); parameters: key: I, increased; D, decreased; NC, no change; conditions: 10 ng/ml, 4 h
aP2 gene expression [2] = test: Real-time PCR, aP2 gene expression in NHBE cells; conditions: for Effect on aP2 expression: NHBE (HBE) cells, stimuli for 18 h, real-time PCR (FIG. 2); for Fold-Change aP2 gene expression (real-time PCR): NHBE cells, 10 ng/ml cytokine, 18 h, vs unstimulated, mean of two RNA sets used in arrays
Procedure: (§1) When NHBE cells were 80% confluent and between passage 7 and 8, they were washed in PBS (Gibco) and starved for 24 h in Clonetics bronchial epithelial cell basal medium (BEBM) containing 0.1% w/v BSA.
(§2) Total RNA was isolated from cells using the RNeasy Total RNA Isolation Kit (Qiagen, Chatswort, Calif.) or Trizol (Invitrogen, CA) as per the manufacturer's instructions.
(§3) cDNA was made using Reverse-IT RTase Blend Kit (ABgene, UK) or Avian myeloblastosis virus Reverse Transcriptase (Promega, Madison, Wis.) according to manufacturer's instructions. Oligo-p(dt)15 primer (Roche Molecular Biochemicals) was used at 1 μM in both cDNA preparation methods. Following cDNA synthesis, 1 μl of cDNA template was used for each PCR. Real-time PCR was conducted using Light Cycler-FastStart DNA Master SYBR Green I kit (Roche Molecular Biochemicals) according to manufacturer's specifications using 2 mM MgCl2 and 1 μM primers. Human aP2 forward and reverse primers and FABP-5 forward and primers were designed from Genbank sequences using Primer3 software (Rozen and Skaletsky, Methods Mol. Biol. 132: 365-386, 2000):
(§4) After an initial denaturation for 10 min at 95° C., the samples were run for 40 cycles at 95° C. (15 s), 63° C. (5 s), and 72° C. (10 s). At the end of each cycle, the fluorescence was measured in a single step in channel F1. After the 40th cycle, the specimens were heated to 95° C. and cooled to 65° C. for 15 s. All heating and cooling steps were performed with a slope of 20° C./sec. The temperature was then raised to 95° C. at a rate of 0.1° C./sec and fluorescence was measured continuously (channel F1) to obtain a melting curve for the PCR products. Each gene was normalized to a housekeeping gene GAPDH before fold change was calculated (using crossing point values) to account for variations between different samples. The aP2 PCR product was confirmed by size on a 2% w/v agarose gel and by sequencing at Sydney University Prince Alfred Macromolecular Analysis Centre, NSW, Australia.
Using the same RNA samples as were used for the microarray experiments, aP2 gene expression was analysed using real-time PCR. […] Data are the mean from the two sets of RNA that were used in the array experiments.

aP2 expression = aP2 expression in THP-1 cells; conditions: 10 ng/ml IL-4, 10 ng/ml IL-13 or 28 ng/ml IFN-γ (FIG. 6)
Procedure: FIG. 6 is a graphical representation showing aP2 expression in THP-1 cells stimulated with (A) 10 ng/ml IL-4, 10 ng/ml IL-13 or 28 ng/ml IFN-γ or (B) 50 ng/ml PMA. The data are mean±SEM from three independent experiments.
To address this issue, the effect of IL-4, IL-13 and IFN-γ on expression of aP2 in the human monocyte cell line THP-1 was examined.

FABP-5 gene expression [3] = test: Microarray, FABP-5 gene expression in NHBE cells; parameters: key to Regulation of FABP-5 gene expression: I, increased; D, decreased; NC, no change; conditions: for Effect on FABP-5 (mal1) expression, microarray: NHBE (HBE) cells; for Fold change FABP-5 gene expression / Regulation of FABP-5 gene expression: NHBE, 10 ng/ml, 18 h, vs ctrl
Procedure: as §1
(§5) Depending on the quantity of RNA available, cRNA was prepared according to the GeneChip Expression Analysis Technical Manual (Array experiment 1; Affymetrix, Santa Clara, Calif.) or the cRNA methods published in Baugh et al., Nucleic Acids Res. 29(5): E29, 2001 (Array experiment 2). The GeneChip Expression Analysis protocol involved cDNA synthesis from 20 μg of total RNA using a poly(T) primer containing a T7 RNA polymerase promoter (Geneworks, Australia):
(§6) cRNA was transcribed from cDNA and biotinylated using the BioArray High Yield RNA Transcript Labeling Kit (Enzo Diagnostics, Farmingdale, N.Y.). Twenty micrograms of cRNA was fragmented by heating at 94° C. for 35 min in fragmentation buffer (40 mM Tris acetate (pH 8.1), 125 mM KOAc, 30 mM MgOAc) prior to hybridization. For the small-scale cRNA amplification (Baugh et al., 2001, supra), cDNA synthesis volumes were different from the GeneChip Expression Analysis Technical Manual but reaction component concentrations, incubation times and temperatures were conserved. Five hundred nanograms of RNA was used and 15 μg cRNA was fragmented prior to hybridization.
(§7) Hybridization cocktails were then made by adding fragmented cRNA, control cRNAs, grid alignment oligonucleotides and blocking reagents. These mixtures were hybridised overnight (˜16 h) to individual Test3 (Affymetrix) arrays at 45° C., under constant rotation at 60 rpm. Washing and staining of the hybridized arrays were performed by an Affymetrix Fluidics Station, according to the manufacturer's protocols. Fluorescent signals were measured on the arrays using the Agilent GeneArray Laser Scanner and gene transcript levels were determined and scaled to 150 using algorithms in MicroArray Analysis Suite Software 5.0 (Affymetrix). For each array experiment, the hybridization cocktails met the test three criteria (background less then 150, GAPDH and β-actin 3′/5′ ratios less then three and similar scaling factors between samples), and were used to probe Affymetrix U95A GeneChips. Relative mRNA expression levels on the IL-4 and IL-13 stimulated NHBE arrays were expressed as plus or minus fold changes when compared to the control NHBE array.
Positive/negative fold change indicates greater/lesser gene expression in the first-named array, respectively. I, increased; D, decreased; NC, no change. Where the same type of array comparison is listed more than once, this represents repeat experiments.

aP2 gene expression [4] = test: Affymetrix U95A microarray, aP2 gene expression in stimulated NHBE cells; parameters: key to Regulation of aP2 gene expression: I, increased; D, decreased; NC, no change; conditions: 18 h; for Fold-Change aP2 gene expression: NHBE cells, 10 ng/ml cytokine, vs unstimulated cells, mean of both micro-array experiments; for Fold change aP2 gene expression / Regulation of aP2 gene expression: NHBE, 10 ng/ml, vs ctrl, individual array comparisons
Procedure: NHBE primary cell lines were purchased from Clonetics (San Diego, Calif.). Both NHBE cell lines, lot 8F1142 and 7F1482, were isolated […]. NHBE cells were maintained in Clonetics bronchial epithelial growth media (BEGM), which included supplements of 52 μg/ml bovine pituitary extract, 0.5 μg/ml hydrocortisone, 0.5 μg/ml human recombinant epidermal growth factor, 0.5 μg/ml epinephrine, 10 μg/ml transferrin, 5 μg/ml insulin, 0.1 μg/ml retinoic acid, 6.5 μg/ml triiodothryonine, 50 μg/ml gentamycin and 50 μg/ml amphotericin B (Clonetics). Medium was replaced every three to four days. When confluent, cells were subcultured at a ratio of 1:3.
as §1
A preliminary time course experiment in IL-4 and IL-13 stimulated NHBE identified 18 h as a time point associated with strong gene regulation and this time point was selected for subsequent analysis. Gene expression in unstimulated- and IL-4- and IL-13-stimulated NHBE was measured using Affymetrix U95A Gene Chips. The experiment was performed twice, using two independent NHBE lines. One novel finding was increased expression of the adipocyte gene aP2 in the cytokine stimulated NHBE cells (Table 3).
NHBE cells were stimulated with 10 ng/ml IL-4 or 10 ng/ml IL-13. After 18 h, gene expression in these cells, and in unstimulated NHBE cells, was analysed using Affymetrix U95A chips. The fold-change in gene expression following cytokine stimulation compared to unstimulated NHBE cells is shown. Data are the mean of both micro-array experiments.
as §5, §6, §7
Regulation of aP2 gene expression was examined for all comparison arrays in which aP2 expression was detected. […]

aP2 protein expression = test: Immunofluorescent staining of aP2 protein in NHBE cells; conditions: NHBE (HBE) cells, 10 ng/ml, 24 h
Procedure: NHBE cells were grown in chamber slides and treated with culture medium alone, or with medium supplemented with 10 ng/ml IL-4 or 10 ng/ml IL-13. After 24 h, the culture medium was removed and the cells were air-dried for 30 min. The cells were fixed in 1% v/v paraformaldehyde for 20 min at room temperature. The slides were washed in PBS and the cells were permeabilised in 70% v/v ethanol at −20° C. for 20 min. The cells were washed in PBS-Triton for 5 min, and then blocked for 60 min with 10% v/v normal goat serum in 2% v/v BSA/Tris-buffered saline (TBS). The normal goat serum was removed and […] (1:1000 dilution in 2% BSA/TBS) or rabbit isotype control (1:4 dilution; Zymed) was added. The slides were incubated overnight at room temperature, washed 3×5 min in TBS-Triton (TBS-T), and incubated with secondary Ab (TRITC-conjugated anti-rabbit Ig; dilution 1:100) for 1 h at room temperature. The slides were washed in TBS-T for 5 min, and cover-slipped after the addition of Vectashield. The slides were examined on a confocal microscope.

FABP-5 gene expression [5] = test: Microarray, FABP-5 gene expression in bronchial smooth muscle cells (BSMC); parameters: key to Regulation of FABP-5 gene expression: I, increased; D, decreased; NC, no change; conditions: 10 ng/ml, 18 h, vs ctrl
FABP-5 gene expression [6] = test: Real-time PCR, FABP-5 (mal1) gene expression in NHBE cells; conditions: for Effect on FABP-5 (mal1) expression, real-time PCR: NHBE (HBE) cells, 10 ng/ml (FIG. 3)
Procedure: as §1, §2, §3, §4

aP2 gene expression [7] = test: Real-time PCR, aP2 gene expression in NHBE cells; conditions: NHBE (HBE) cells, subsequent experiment

IL-1: cytokine Interleukin (IL)-1β used as stimulus, 10 ng/ml
Regulation of FABP-5 gene expression (FABP-5 gene expression [1]; RA synoviocytes, vs RA ctrl): NC
Effect on aP2 expression (aP2 gene expression [2]): no effect

IL-13: allergy-associated type-2 cytokine used as stimulus, 10 ng/ml (BD)
Fold-Change aP2 gene expression (real-time PCR) (aP2 gene expression [2]): 56
Effect on aP2 expression (aP2 expression): stimulated aP2 expression
Effect on FABP-5 (mal1) expression, microarray (FABP-5 gene expression [3]): mildly up-regulated
Fold change FABP-5 gene expression (FABP-5 gene expression [3]): 1.5
Regulation of FABP-5 gene expression (FABP-5 gene expression [3]): I and NC
Fold-Change aP2 gene expression (aP2 gene expression [4]): 31.8
Fold change aP2 gene expression (aP2 gene expression [4]): 45.3 and 18.4
Regulation of aP2 gene expression (aP2 gene expression [4]): I
Intensity of aP2 staining vs unstimulated cells (aP2 protein expression): considerably greater
Nuclear localisation of aP2 (aP2 protein expression): significant nuclear localisation
Fold change FABP-5 gene expression (FABP-5 gene expression [5]): 1.7
Regulation of FABP-5 gene expression (FABP-5 gene expression [5]): NC and I
Effect on FABP-5 (mal1) expression, real-time PCR (FABP-5 gene expression [6]): up-regulated; also recorded: upregulated

IFN-γ: prototypic type 1 cytokine, 28 ng/ml
Effect on aP2 expression (aP2 gene expression [2]): strongly down-regulated
Effect on aP2 expression (aP2 gene expression [2]; listed as IFNg): down-regulated
Effect on aP2 expression (aP2 gene expression [2]; listed as IFNγ): strongly downregulated
Effect on aP2 expression (aP2 expression): reduced expression
Effect on mal1 expression (FABP-5 gene expression [6]; HBE cells, summary statement, method not stated): down-regulated

Cc1cccc(Nc2cc(Cl)nc(SCC(=O)O)n2)c1C [WY14643]
Effect on aP2 expression (aP2 gene expression [7]): little or no effect

TNFα
Regulation of FABP-5 gene expression (FABP-5 gene expression [1]; OA synoviocytes, vs OA ctrl): NC
Regulation of FABP-5 gene expression (FABP-5 gene expression [1]; RA synoviocytes, vs RA ctrl): NC
Effect on aP2 expression (aP2 gene expression [2]): no effect

IL-4: allergy-associated type-2 cytokine used as stimulus, 10 ng/ml (BD)
Regulation of FABP-5 gene expression (FABP-5 gene expression [1]; RA synoviocytes, vs RA ctrl): NC
Fold-Change aP2 gene expression (real-time PCR) (aP2 gene expression [2]): 65
Effect on aP2 expression (aP2 expression): stimulated aP2 expression
Effect on FABP-5 (mal1) expression, microarray (FABP-5 gene expression [3]): mildly up-regulated
Fold change FABP-5 gene expression (FABP-5 gene expression [3]): 1.4 and 2
Regulation of FABP-5 gene expression (FABP-5 gene expression [3]): I
Fold-Change aP2 gene expression (aP2 gene expression [4]): 33.4
Fold change aP2 gene expression (aP2 gene expression [4]): 48.5 and 18.4
Regulation of aP2 gene expression (aP2 gene expression [4]): I
Intensity of aP2 staining vs unstimulated cells (aP2 protein expression): considerably greater
Nuclear localisation of aP2 (aP2 protein expression): significant nuclear localisation
Effect on FABP-5 (mal1) expression, real-time PCR (FABP-5 gene expression [6]): up-regulated; also recorded: upregulated

IL-6: cytokine stimulus, 5 ng/ml (BD)
Effect on aP2 expression (aP2 gene expression [2]): no effect

CCCCCCCCCCCCCC(=O)O[C@@H]1[C@@H](C)[C@@]2(O)[C@@H](C=C(CO)C[C@]3(O)C(=O)C(C)=C[C@@H]23)[C@@H]2C(C)(C)[C@]12OC(C)=O [PMA, phorbol myristate acetate, reference compound]
Effect on aP2 expression (aP2 gene expression [2]): slight down-regulation; also recorded: slight downregulation

B1: IL-10: cytokine stimulus, 10 ng/ml (BD) (protein, UniProt P22301 19-178, looked up)
Interleukin-10: SPGQGTQSENSCTHFPGNLPNMLRDLRDAFSRVKTFFQMKDQLDNLLLKESLLEDFKGYLGCQALSEMIQFYLEEVMPQAENQDPDIKAHVNSLGENLKTLRLRLRRCHRFLPCENKSKAVEQVKNAFNKLQEKGIYKAMSEFDIFINYIEAYMTMKIRN
Effect on aP2 expression (aP2 gene expression [2]): no effect
